Reference: ChEMBL document CHEMBL5291721, “A preclinical secondary pharmacology resource illuminates target-adverse drug reaction associations of marketed drugs” (Nat Commun, 2023)

How the values were obtained:
[1] = target: Gamma-aminobutyric acid receptor subunit alpha-1 (Rattus norvegicus, UniProt P62813); assay type: functional
[2] = target: T1, Alpha-2A adrenergic receptor (Homo sapiens, UniProt P08913); assay type: functional, cell-based
T1 sequence (P08913 whole entry): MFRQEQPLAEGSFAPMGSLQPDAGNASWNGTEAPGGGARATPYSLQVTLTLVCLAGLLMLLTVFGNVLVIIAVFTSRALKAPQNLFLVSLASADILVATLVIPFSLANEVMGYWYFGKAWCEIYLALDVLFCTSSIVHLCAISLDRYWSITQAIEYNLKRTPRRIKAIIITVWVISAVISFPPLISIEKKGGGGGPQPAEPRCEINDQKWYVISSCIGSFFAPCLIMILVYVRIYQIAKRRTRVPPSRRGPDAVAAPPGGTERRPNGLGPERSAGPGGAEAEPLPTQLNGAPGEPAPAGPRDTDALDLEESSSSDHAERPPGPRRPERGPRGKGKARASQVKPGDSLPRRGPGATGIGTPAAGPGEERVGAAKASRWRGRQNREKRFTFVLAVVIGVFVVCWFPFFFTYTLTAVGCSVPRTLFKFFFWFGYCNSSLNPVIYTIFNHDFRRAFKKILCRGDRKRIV

Adenosine receptor A2a = Adenosine receptor A2a (Homo sapiens, UniProt P29274)
[3] = target: Neuronal acetylcholine receptor subunit alpha-4 (Homo sapiens, UniProt P43681)
[4] = target: T2, Alpha-2C adrenergic receptor (Homo sapiens, UniProt P18825); assay type: functional
T2 sequence (P18825 whole entry): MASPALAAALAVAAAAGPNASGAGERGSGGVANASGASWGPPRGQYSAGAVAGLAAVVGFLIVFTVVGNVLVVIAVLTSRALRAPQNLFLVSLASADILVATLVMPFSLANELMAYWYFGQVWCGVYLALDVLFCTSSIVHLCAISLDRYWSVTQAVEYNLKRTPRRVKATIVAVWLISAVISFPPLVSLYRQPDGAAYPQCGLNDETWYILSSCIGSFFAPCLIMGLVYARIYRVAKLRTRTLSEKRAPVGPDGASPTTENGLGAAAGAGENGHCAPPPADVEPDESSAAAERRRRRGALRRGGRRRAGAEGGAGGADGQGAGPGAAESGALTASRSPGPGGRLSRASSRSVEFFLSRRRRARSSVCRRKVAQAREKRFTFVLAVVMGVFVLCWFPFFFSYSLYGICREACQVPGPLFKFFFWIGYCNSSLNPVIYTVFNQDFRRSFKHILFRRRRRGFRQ

[5] = target: Voltage-gated inwardly rectifying potassium channel KCNH2 (Homo sapiens, UniProt Q12809); assay type: functional; conditions: read-out: AC50
Adenosine receptor A1 = target: T3, Adenosine receptor A1 (Homo sapiens, UniProt P30542)
T3 sequence (P30542 whole entry): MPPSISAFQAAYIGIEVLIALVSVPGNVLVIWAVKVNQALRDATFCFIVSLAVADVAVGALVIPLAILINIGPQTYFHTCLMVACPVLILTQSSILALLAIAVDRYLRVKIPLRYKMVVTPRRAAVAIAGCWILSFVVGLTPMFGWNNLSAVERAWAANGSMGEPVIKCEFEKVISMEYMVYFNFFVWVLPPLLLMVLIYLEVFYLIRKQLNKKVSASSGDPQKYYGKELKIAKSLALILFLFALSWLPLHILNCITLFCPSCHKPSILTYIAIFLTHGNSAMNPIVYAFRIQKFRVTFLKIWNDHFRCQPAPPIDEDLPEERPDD

[6] = target: T4, Equilibrative nucleoside transporter 1 (Homo sapiens, UniProt Q99808)
T4 sequence (Q99808 whole entry): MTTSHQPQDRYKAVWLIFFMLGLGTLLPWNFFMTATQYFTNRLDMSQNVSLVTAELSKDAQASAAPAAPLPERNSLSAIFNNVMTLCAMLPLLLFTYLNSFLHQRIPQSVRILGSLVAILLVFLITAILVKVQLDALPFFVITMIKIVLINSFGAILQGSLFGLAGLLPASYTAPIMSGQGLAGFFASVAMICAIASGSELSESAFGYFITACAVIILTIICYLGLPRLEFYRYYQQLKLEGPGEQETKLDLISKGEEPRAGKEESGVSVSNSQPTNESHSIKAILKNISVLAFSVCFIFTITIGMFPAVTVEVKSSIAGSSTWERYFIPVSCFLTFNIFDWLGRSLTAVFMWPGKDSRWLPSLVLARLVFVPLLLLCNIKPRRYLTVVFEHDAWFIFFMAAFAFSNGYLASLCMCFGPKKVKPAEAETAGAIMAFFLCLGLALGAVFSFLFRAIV

Bile salt export pump = Bile salt export pump (Homo sapiens, UniProt O95342); assay type: functional
[7] = target: T5, Muscarinic acetylcholine receptor M2 (Homo sapiens, UniProt P08172); assay type: functional, cell-based
T5 sequence (P08172 whole entry): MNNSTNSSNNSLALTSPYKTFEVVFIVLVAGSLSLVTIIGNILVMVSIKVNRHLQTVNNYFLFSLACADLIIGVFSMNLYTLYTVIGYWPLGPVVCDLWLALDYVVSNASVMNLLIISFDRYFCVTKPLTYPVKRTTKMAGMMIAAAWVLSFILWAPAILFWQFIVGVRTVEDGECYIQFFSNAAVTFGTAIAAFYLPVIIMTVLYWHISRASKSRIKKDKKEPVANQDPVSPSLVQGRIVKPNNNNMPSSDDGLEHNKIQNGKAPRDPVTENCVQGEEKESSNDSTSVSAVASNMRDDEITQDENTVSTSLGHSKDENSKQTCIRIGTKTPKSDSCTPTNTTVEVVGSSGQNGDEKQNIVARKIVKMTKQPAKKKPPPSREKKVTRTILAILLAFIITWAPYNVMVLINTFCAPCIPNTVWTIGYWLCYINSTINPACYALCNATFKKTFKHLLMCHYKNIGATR

[8] = target: Sodium-dependent dopamine transporter (Homo sapiens, UniProt Q01959)
Also: assay procedure not described here.

Sequence of Sodium-dependent dopamine transporter (Q01959 whole entry): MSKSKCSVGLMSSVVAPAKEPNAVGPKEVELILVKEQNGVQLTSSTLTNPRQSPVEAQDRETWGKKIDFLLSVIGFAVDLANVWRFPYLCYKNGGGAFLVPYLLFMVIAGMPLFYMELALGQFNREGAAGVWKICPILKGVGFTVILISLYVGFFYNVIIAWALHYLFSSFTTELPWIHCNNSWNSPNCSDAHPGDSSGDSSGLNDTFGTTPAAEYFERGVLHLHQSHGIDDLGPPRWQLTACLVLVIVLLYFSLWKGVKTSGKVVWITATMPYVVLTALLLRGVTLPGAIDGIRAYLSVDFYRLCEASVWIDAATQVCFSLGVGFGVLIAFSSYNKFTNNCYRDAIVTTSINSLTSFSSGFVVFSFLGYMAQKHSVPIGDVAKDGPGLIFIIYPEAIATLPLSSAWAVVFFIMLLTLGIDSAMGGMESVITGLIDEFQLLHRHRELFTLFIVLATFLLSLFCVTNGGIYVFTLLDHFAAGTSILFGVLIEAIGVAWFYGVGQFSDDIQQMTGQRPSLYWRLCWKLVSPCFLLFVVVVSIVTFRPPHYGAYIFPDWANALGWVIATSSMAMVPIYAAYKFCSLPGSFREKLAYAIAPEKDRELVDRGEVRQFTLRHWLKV
Sequence of Neuronal acetylcholine receptor subunit alpha-4 (P43681 whole entry): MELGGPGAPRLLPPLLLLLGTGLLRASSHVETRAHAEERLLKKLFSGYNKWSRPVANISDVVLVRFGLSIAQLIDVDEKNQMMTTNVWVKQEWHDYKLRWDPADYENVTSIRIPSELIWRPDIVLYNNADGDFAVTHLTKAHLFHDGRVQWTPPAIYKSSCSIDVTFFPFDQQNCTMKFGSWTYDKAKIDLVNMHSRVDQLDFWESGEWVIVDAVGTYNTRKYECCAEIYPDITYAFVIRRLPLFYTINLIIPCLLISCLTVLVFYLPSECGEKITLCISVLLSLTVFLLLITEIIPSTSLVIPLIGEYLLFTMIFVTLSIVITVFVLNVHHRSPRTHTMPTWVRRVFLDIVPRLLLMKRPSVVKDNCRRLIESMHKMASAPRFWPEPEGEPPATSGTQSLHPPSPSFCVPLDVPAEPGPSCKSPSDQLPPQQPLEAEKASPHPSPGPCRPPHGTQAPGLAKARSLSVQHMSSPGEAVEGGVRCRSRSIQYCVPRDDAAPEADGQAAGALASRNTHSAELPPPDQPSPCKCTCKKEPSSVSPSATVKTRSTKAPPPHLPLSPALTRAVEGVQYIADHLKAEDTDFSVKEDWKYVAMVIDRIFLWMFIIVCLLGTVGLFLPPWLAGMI
Sequence of Voltage-gated inwardly rectifying potassium channel KCNH2 (Q12809 whole entry): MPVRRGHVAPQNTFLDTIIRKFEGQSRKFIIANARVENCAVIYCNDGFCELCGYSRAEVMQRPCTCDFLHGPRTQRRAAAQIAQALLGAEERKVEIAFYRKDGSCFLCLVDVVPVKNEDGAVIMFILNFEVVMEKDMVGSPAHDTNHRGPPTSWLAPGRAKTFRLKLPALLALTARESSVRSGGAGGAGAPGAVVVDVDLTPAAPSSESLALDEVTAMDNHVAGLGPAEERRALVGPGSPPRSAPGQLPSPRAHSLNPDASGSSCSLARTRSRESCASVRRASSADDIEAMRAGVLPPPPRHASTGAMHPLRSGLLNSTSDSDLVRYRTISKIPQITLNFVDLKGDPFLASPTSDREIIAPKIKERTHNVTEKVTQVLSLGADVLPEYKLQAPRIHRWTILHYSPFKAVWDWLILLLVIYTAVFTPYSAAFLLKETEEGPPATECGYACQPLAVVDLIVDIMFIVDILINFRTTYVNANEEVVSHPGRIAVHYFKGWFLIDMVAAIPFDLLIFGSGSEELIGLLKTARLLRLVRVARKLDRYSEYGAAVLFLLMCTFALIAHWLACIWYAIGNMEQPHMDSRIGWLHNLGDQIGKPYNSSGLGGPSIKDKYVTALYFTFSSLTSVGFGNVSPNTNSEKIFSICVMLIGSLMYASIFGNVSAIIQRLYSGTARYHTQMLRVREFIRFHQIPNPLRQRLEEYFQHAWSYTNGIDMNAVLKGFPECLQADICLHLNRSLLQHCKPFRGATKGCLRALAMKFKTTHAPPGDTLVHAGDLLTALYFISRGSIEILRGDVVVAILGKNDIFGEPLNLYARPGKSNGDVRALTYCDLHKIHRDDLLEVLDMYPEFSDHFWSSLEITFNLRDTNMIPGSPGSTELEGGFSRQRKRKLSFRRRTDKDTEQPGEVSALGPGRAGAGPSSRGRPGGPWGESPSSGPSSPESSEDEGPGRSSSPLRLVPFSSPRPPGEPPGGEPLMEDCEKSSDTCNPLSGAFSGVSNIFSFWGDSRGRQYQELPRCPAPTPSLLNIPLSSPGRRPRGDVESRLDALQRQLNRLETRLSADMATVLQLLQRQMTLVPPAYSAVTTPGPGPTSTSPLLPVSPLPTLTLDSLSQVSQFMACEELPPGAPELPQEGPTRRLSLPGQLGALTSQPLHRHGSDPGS
Sequence of Gamma-aminobutyric acid receptor subunit alpha-1 (P62813 whole entry): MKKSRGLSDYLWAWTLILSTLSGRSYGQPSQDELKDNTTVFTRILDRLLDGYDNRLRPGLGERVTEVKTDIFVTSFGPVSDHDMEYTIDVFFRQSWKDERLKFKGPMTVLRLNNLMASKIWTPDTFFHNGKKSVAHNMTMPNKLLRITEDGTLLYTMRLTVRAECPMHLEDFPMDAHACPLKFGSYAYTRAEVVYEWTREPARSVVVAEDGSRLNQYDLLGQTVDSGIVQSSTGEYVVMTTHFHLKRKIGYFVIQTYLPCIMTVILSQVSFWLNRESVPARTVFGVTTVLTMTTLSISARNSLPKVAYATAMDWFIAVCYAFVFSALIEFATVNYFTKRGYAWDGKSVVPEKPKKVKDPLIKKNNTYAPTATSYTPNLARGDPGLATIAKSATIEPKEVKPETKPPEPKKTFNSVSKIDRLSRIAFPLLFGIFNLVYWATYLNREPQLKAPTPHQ
Sequence of Bile salt export pump (O95342 whole entry): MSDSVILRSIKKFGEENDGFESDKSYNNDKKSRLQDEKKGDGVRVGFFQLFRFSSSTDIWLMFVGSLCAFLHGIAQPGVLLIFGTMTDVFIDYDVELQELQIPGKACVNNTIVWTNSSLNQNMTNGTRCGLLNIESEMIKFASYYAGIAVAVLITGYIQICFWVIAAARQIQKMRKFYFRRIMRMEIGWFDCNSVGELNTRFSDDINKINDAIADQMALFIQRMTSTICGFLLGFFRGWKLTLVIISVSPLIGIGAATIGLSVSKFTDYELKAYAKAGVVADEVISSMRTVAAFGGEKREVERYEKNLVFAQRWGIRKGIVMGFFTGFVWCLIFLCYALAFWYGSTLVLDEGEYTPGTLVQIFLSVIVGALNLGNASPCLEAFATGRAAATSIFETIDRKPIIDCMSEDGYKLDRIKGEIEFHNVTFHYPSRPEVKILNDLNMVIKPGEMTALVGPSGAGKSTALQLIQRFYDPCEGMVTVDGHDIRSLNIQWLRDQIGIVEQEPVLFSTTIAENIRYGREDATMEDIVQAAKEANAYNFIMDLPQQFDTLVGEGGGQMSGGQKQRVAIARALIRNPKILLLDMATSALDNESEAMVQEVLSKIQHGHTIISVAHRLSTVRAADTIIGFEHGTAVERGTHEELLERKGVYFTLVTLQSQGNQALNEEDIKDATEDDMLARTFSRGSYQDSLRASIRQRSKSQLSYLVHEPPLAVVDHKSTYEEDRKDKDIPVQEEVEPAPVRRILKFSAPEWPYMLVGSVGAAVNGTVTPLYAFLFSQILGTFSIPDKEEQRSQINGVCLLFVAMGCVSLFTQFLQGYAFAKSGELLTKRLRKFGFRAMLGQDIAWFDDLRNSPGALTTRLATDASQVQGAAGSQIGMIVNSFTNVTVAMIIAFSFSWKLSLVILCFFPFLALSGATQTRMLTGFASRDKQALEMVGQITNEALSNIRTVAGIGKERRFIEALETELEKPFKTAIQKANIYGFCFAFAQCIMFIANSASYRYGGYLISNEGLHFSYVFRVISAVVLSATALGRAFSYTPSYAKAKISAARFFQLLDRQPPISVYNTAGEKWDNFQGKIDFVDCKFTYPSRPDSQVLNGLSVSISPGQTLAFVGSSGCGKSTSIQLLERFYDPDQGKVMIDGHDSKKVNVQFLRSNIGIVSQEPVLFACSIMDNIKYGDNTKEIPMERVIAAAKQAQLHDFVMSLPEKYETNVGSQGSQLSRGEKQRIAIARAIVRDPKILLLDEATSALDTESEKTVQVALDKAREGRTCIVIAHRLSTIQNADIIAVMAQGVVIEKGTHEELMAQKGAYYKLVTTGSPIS
Sequence of Adenosine receptor A2a (P29274 whole entry): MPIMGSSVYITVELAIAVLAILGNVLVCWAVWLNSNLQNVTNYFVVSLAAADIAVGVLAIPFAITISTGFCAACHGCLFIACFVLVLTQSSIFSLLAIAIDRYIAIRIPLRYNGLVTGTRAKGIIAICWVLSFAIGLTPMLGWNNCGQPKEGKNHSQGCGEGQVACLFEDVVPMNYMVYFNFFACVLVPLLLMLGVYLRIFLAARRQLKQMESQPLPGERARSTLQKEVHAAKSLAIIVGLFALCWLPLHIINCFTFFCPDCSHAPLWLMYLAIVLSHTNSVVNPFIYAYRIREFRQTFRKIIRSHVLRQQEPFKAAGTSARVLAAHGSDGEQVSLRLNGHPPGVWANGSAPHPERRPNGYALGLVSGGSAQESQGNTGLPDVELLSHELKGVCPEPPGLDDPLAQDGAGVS

Compound | AC50 [1] | AC50 [2] | AC50 (Adenosine receptor A2a) | AC50 [3] | AC50 [4] | AC50 [5] | AC50 (Adenosine receptor A1) | AC50 [6] | AC50 (Bile salt export pump) | AC50 [7] | AC50 [8]
CO/N=C(\C(=O)N[C@@H]1C(=O)N2C(C(=O)[O-])=C(C[N+]3(C)CCCC3)CS[C@H]12)c1csc(N)n1 | > 300 µM | > 300 µM | > 300 µM | > 300 µM | > 300 µM | > 300 µM | > 300 µM | > 300 µM | > 300 µM | > 300 µM | > 300 µM
COC(=O)N[C@H](C(=O)N1CCC[C@H]1c1nc(-c2ccc(-c3ccc(-c4c[nH]c([C@@H]5CCCN5C(=O)[C@@H](NC(=O)OC)C(C)C)n4)cc3)cc2)c[nH]1)C(C)C | > 30 µM | > 30 µM | > 30 µM | > 30 µM | > 30 µM | – | > 30 µM | > 30 µM | 5.9 µM | > 30 µM | > 30 µM
CCOC(=O)[C@H](CCc1ccccc1)N[C@@H](C)C(=O)N1CCC[C@H]1C(=O)O | > 10 µM | > 10 µM | > 30 µM | > 10 µM | > 10 µM | > 30 µM | > 30 µM | > 30 µM | > 300 µM | > 10 µM | > 10 µM
Nc1nc(N)c2nc(-c3ccccc3)c(N)nc2n1 | > 30 µM | > 30 µM | > 30 µM | > 30 µM | > 30 µM | > 30 µM | > 30 µM | > 30 µM | > 300 µM | > 30 µM | > 30 µM
C[C@H]1O[C@H](O[C@H]2[C@H](O)[C@@H](O)[C@@H](O[C@H]3[C@H](O)[C@@H](O)C(O)O[C@@H]3CO)O[C@@H]2CO)[C@H](O)[C@@H](O)[C@@H]1N[C@H]1C=C(CO)[C@@H](O)[C@H](O)[C@H]1O (some centres not stated) [ACARBOSE] | > 10 µM | > 30 µM | > 30 µM | > 30 µM | > 10 µM | > 30 µM | > 30 µM | > 30 µM | > 300 µM | > 10 µM | > 30 µM
CC(N)Cc1ccccc1 (configuration not stated) [AMPHETAMINE] | > 30 µM | > 30 µM | 11 µM | > 30 µM | > 30 µM | > 30 µM | 18 µM | > 30 µM | > 300 µM | > 30 µM | –
CN1CCCC(n2nc(Cc3ccc(Cl)cc3)c3ccccc3c2=O)CC1 (configuration not stated) [AZELASTINE] | > 30 µM | 0.86 µM | > 30 µM | 17 µM | 2.4 µM | – | > 30 µM | > 30 µM | > 100 µM | – | 7.3 µM
CCC[C@@H]1C[C@@H](C(=O)N[C@@H]([C@H]2O[C@H](SC)[C@H](O)[C@@H](O)[C@H]2O)[C@H](C)Cl)N(C)C1 [CLINDAMYCIN] | > 10 µM | > 10 µM | > 30 µM | > 10 µM | > 10 µM | – | > 30 µM | > 30 µM | > 300 µM | > 10 µM | > 10 µM
CN(CCOc1ccc(NS(C)(=O)=O)cc1)CCc1ccc(NS(C)(=O)=O)cc1 [DOFETILIDE] | > 10 µM | > 30 µM | > 30 µM | > 10 µM | > 10 µM | – | > 30 µM | > 30 µM | > 300 µM | > 30 µM | > 10 µM
COc1cc2c(cc1OC)C(=O)C(CC1CCN(Cc3ccccc3)CC1)C2 (configuration not stated) [DONEPEZIL] | > 10 µM | > 10 µM | > 30 µM | > 10 µM | 6.2 µM | – | > 30 µM | > 30 µM | > 300 µM | – | > 30 µM
C#C[C@]1(O)CC[C@H]2[C@@H]3CCc4cc(O)ccc4[C@H]3CC[C@@]21C [ETHINYL ESTRADIOL] | > 10 µM | > 10 µM | > 30 µM | – | > 10 µM | > 30 µM | > 30 µM | > 30 µM | 38 µM | > 10 µM | 2.81 µM
CCN(CC)CCNC(=O)c1cc(Cl)c(N)cc1OC [METOCLOPRAMIDE] | > 10 µM | > 10 µM | > 30 µM | > 10 µM | 3 µM | 2.77 µM | > 30 µM | > 30 µM | > 300 µM | – | > 10 µM
Cc1cccc(C)c1OCC(C)N (configuration not stated) [MEXILETINE] | – | > 30 µM | > 30 µM | > 30 µM | > 30 µM | > 30 µM | > 30 µM | > 30 µM | > 300 µM | > 30 µM | > 30 µM
COC(=O)C1=C(C)NC(C)=C(C(=O)OCC(C)C)C1c1ccccc1[N+](=O)[O-] (configuration not stated) [NISOLDIPINE] | > 10 µM | > 10 µM | 5.5 µM | > 10 µM | > 10 µM | – | 20.4 µM | > 10 µM | 8 µM | > 10 µM | > 10 µM
CCc1ccc(CCOc2ccc(CC3SC(=O)NC3=O)cc2)nc1 (configuration not stated) [PIOGLITAZONE] | > 10 µM | > 10 µM | > 30 µM | – | > 10 µM | > 30 µM | > 30 µM | > 30 µM | 0.1 µM | > 10 µM | > 30 µM
OCc1cc([C@@H](O)CNCCCCCCOCCOCc2c(Cl)cccc2Cl)ccc1O [VILANTEROL] | > 30 µM | > 30 µM | > 30 µM | > 30 µM | > 30 µM | – | > 30 µM | > 30 µM | 44 µM | > 30 µM | 6.7 µM
O=C(CCCCCCC(=O)Nc1ccccc1)NO [VORINOSTAT] | > 30 µM | > 30 µM | > 30 µM | > 30 µM | > 30 µM | – | > 30 µM | > 30 µM | > 300 µM | > 30 µM | > 30 µM
